Laboratory results published in US20250179047A1, “5-[7-(3,4-DIHYDRO-1H-ISOQUINOLINE-2-CARBONYL)-1,2,3,4 TETRAHYDROISOQUINOLIN-6-YL]-1H-PYRROLE-3-CARBOXAMIDE DERIVATIVES, PHARMACEUTICAL COMPOSITIONS CONTAINING THEM AND THEIR USES AS PRO-APOPTOTIC AGENTS” (LES LABORATOIRES SERVIER, priority 2022, published 2025).

What was measured:
[1] = system: KMS-12-PE Bcl-2 WT; experiment: In vitro cytotoxicity CellTiter-Glo 48 h, KMS-12-PE Bcl-2 WT; assay type: cell-based; settings: Homo sapiens, KMS-12-PE, C50 = concentration needed to reach 50% of the cellular viability
Procedure, shortened: (§1)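 Potency is expressed as C50, the compound concentration at which viability of engineered KMS-12-PE cells (Bcl-2 wild type or G101V) falls to 50%, determined from CellTiter-Glo luminescence after 48 h of treatment over 11 concentrations.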

[2] = target: BCL2 WT (Homo sapiens (Human), UniProt P10415); experiment: TR-FRET competitive binding assay, BCL2 WT; settings: Ki determined from IC50, read-out: TR_FRET EKI_Bcl2 WT
Procedure, shortened: (§2)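 Competitive TR-FRET displacement of fluorescein-PUMA peptide (2 or 20 nM) from 0.5 nM terbium-labelled N-terminal Halo-fusion BCL2 (1-207, wild type or mutant) or BCLXL (2-196), expressed in E. coli. Buffer 50 mM Hepes pH 7.5, 150 mM NaCl, 5% DMSO; 2 h at 23°C. 520/495 nm ratio fitted over 11 points for IC50, converted to Ki.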

[3] = target: BCL2 G101V (Homo sapiens, UniProt P10415, G101V); experiment: TR-FRET competitive binding assay, BCL2 G101V; settings: BCL2 G101V; Ki determined from IC50; read-out: TR_FRET EKI_Bcl2 G101V
Procedure, shortened: as §2

[4] = system: BCL2 G101V; experiment: TR-FRET competitive binding assay, BCL2 G101V; design: species or system human; settings: ratio Ki BCL2 G101V / Ki BCL2 WT
Procedure, shortened: as §2

[5] = target: BCLXL WT (Homo sapiens (Human), UniProt Q07817); experiment: TR-FRET competitive binding assay, BCLXL WT; settings: for Ki: BCLXL WT, Ki determined from IC50, read-out: TR_FRET EKI BclxL; for TR_FRET EKI BCLxL/WT selectivty ratio: ratio Ki BCLxL / Ki BCL2 WT
Chain of BCLXL WT (Q07817 other isoform, or with tags, fused parts or gaps): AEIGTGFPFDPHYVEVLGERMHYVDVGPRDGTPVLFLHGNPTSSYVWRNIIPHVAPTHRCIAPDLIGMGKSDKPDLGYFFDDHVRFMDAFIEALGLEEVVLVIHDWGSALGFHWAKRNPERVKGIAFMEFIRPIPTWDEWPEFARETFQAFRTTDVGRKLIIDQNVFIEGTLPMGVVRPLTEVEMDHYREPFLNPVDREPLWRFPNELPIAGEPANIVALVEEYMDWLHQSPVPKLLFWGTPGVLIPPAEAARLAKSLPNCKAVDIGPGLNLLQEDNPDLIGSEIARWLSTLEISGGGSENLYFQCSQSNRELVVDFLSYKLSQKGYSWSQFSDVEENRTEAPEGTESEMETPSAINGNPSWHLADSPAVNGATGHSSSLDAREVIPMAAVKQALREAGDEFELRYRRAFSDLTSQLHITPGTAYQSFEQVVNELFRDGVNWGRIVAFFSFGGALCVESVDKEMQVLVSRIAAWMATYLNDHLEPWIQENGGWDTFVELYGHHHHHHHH
Procedure, shortened: as §2

[6] = target: BCL2 F104I (Homo sapiens, UniProt P10415, F104I); experiment: TR-FRET competitive binding assay, BCL2 F104I; settings: Ki determined from IC50, read-out: TR_FRET EKI_Bcl2 F104I
Procedure, shortened: as §2

[7] = target: BCL2 D103Y (Homo sapiens, UniProt P10415, D103Y); experiment: TR-FRET competitive binding assay, BCL2 D103Y; settings: Ki determined from IC50, read-out: TR_FRET EKI_Bcl2 D103Y
Procedure, shortened: as §2

[8] = target: BCL2 D111A (Homo sapiens, UniProt P10415, D111A); experiment: TR-FRET competitive binding assay, BCL2 D111A; settings: Ki determined from IC50, read-out: TR_FRET EKI_Bcl2 D111A
Method: The relative binding potency of each compound was determined in a competitive binding assay using time resolved-fluorescence resonance energy transfer (TR-FRET). The method utilised a fluorescein labelled peptide derived from PUMA (5Flu-Ahx-[…]-NH2 wherein Ahx means 6-hexanoic acid monomer and the amino acid sequence is referred to as SEQ ID:01) which binds to a terbium labelled BCL2 or BCLXL protein. The degree of binding or corresponding compound inhibition can be quantified by the TR-FRET signal between the terbium donor and fluorescein acceptor.
The human BCL2_wild-type (also named BCL2_wt), BCL2_G101V mutant and BCLXL_wild-type were E. coli expressed as a N-terminal Halo-fusion proteins and singly labelled with Terbium on the Halo protein to afford the following amino acid sequences:
wherein the BCL2(1-207) sequence corresponds to UniProtKB® primary accession number P10415 and the BCLXL(2-196) sequence corresponds to UniProtKB® primary accession number Q07817-1.
The assay was performed in a 40 μL volume in white 384-standard well plates (Corning #3574). An 11-point serial dilution of each compound was prepared in DMSO and transferred directly to plate followed by addition of fluorescein labelled peptide and lastly protein. Final assay conditions were 0.5 nM BCL2_wt, BCL2_G101V, BCL2_D103Y, BCL2_F104I, BCL2_D111A or BCLXL_wt, 2 or 20 nM fluorescein labelled peptide, 50 mM Hepes pH 7.5, 150 mM NaCl, 0.5 mM TCEP (Tris(2-carboxyethyl)phosphine), 0.05% Tween 20, 5% DMSO. The mixture was incubated for 2 hours at 23° C.
TR-FRET measurements were performed on a Biotek Synergy Neo plate reader. TR-FRET was measured by excitation of the Terbium-donor at 340 nm and subsequent (delay time 100 μs) measurement of terbium and fluorescein emission at 495 nm and 520 nm, respectively, over a collection time of 300 μs. The TR-FRET signal was calculated as the emission-ratio at 520 nm over 495 nm.
The TR-FRET ratio readout for test compounds was normalized against 0% inhibition controls wells and 100% inhibition control wells. Test compound potency (IC50) was estimated by nonlinear regression using the sigmoidal dose-response (variable slope) using Xlfit 4 (IDBS, Guildford, Surrey, UK, model 205). Were the IC50 could not be determined the % inhibition at the highest tested concentration is given.
y=(A+((B−A)/(1+((C/x)^D))))
where y is the normalized TR-TRET ratio measurement for a given concentration of test compound, x is the concentration of test compound, A is the estimated efficacy (% inhibition) at infinite compound dilution, and B is the maximal efficacy (% inhibition). C is the IC50 value and D is the Hill slope coefficient.
The K1 values were determined from the IC50 values according to Cer et al, Nucleic Acids Res, 2009, July 1; 37 (WebServer issue): W441-W445.

[9] = system: KMS-12-PE Bcl-2 G101V; experiment: In vitro cytotoxicity CellTiter-Glo 48 h, KMS-12-PE Bcl-2 G101V; assay type: cell-based; settings: for Ratio (G101V/WT): C50 KMS-12-PE Bcl-2 G101V over C50 KMS-12-PE Bcl-2 WT; for IC50: Homo sapiens, KMS-12-PE, 48 h, CellTiter-Glo, C50 = concentration needed to reach 50% of the cellular viability
Procedure, shortened: as §1

Row | Structure (SMILES) | IC50 [1] [µM] | Ki [2] [nM] | Ki [3] [nM] | TR_FRET EKI G101V/WT selectivty ratio [4] | Ki [5] [nM] | TR_FRET EKI BCLxL/WT selectivty ratio [5] | Ki [6] [nM] | Ki [7] [nM] | Ki [8] [nM] | Ratio (G101V/WT) [9] | IC50 [9] [µM]
1 | Cc1c(N(C(=O)c2cc(-c3cc4c(cc3C(=O)N3Cc5ccccc5C[C@H]3C)CN(C(=O)Cc3ccc(CCN5CCOCC5)cc3)CC4)n(C)c2C)c2ccc(O)cc2)cc(C#N)n1C [Example 38, N-(5-cyano-1,2-dimethylpyrrol-3-yl)-N-(4-hydroxyphenyl)-1,2-dimethyl-5-(7-{[(3R)-3-methyl-3,4-dihydro-1H-isoquinolin-2-yl]carbonyl}-2-(2-{4-[2-(morpholin-4-yl)ethyl]phenyl}acetyl)-3,4-dihydro-1H-isoquinolin-6-yl)pyrrole-3-carboxamide] | 0.0091 | 0.1 | 0.5 | 4.8 | 1 | 10.0 | 0.82 | 0.32 | 0.15 | 5.57 | 0.0509
2 | Cc1c(N(C(=O)c2cc(-c3cc4c(cc3C(=O)N3Cc5ccccc5C[C@H]3CN3CCCCC3)CN(C(=O)Cc3ccc(Cl)cc3F)CC4)n(C)c2C)c2ccc(O)cc2)cc(C#N)n1C [Example 44, 5-{2-[2-(4-chloro-2-fluorophenyl)acetyl]-7-{[(3S)-3-(piperidin-1-ylmethyl)-3,4-dihydro-1H-isoquinolin-2-yl]carbonyl}-3,4-dihydro-1H-isoquinolin-6-yl}-N-(5-cyano-1,2-dimethylpyrrol-3-yl)-N-(4-hydroxyphenyl)-1,2-dimethylpyrrole-3-carboxamide] | 0.0073 | 0.06 | 0.5 | 8.5 | 2.2 | 36.1 | 1.34 | 0.35 | 0.24 | 12.2 | 0.0886
3 | Cc1c(N(C(=O)c2cc(-c3cc4c(cc3C(=O)N3Cc5ccccc5C[C@H]3C)CN(C(=O)Cc3ccc(OCCN5CCOCC5)cc3Cl)CC4)n(C)c2C)c2ccc(O)cc2)cc(C#N)n1C [Example 46, 5-[2-(2-{2-chloro-4-[2-(morpholin-4-yl)ethoxy]phenyl}acetyl)-7-[(3R)-3-methyl-1,2,3,4-tetrahydroisoquinoline-2-carbonyl]-1,2,3,4-tetrahydroisoquinolin-6-yl]-N-(5-cyano-1,2-dimethyl-1H-pyrrol-3-yl)-N-(4-hydroxyphenyl)-1,2-dimethyl-1H-pyrrole-3-carboxamide] | 0.0051 | 0.14 | 0.3 | 2.4 | 1.5 | 10.7 | 0.35 | 0.23 | 0.2 | 5 | 0.0256
